From patent US20120035244A1, “PARP1 TARGETED THERAPY” (THE REGENTS OF THE UNIVERSITY OF MICHIGAN, priority 2010, published 2012)
“Also recorded” adds a separate entry of the source.

Legend:
[1] = test system: PC3 model overexpressing T2:ERG; assay: γH2A.X foci after radiation (DNA double strand break repair), isogenic PC3 model; assay type: cell-based; details: PC3, pre-treated with 10 μM Olaparib, then radiation
Procedure: The effect of ETS overexpression on repair of DNA double strand breaks was assayed. Isogenic PC3 and DU145 models, respectively, overexpressing either T2:ERG or ERG with a deleted ETS domain were pre-treated with or without 10 μM Olaparib and then treated with radiation. Immunofluorescence staining of γH2A.X foci was used to assess total levels of DNA damage and repair rate. The number of cells with >10 γH2A.X foci were quantified at each time point as indicated. Representative photomicrographs were taken 24 hours after treatment using an Olympus confocal microscope with a 100× Oil objective. All experiments were run in triplicate. Error bars are standard error of the mean.

[2] = test system: VCaP; assay: CAM xenograft tumor weight, VCaP; assay type: in vivo, chicken embryo; details: extended Olaparib treatment, P<0.05
Procedure: The CAM assay was performed as described previously (Zijlstra, A., et al., Cancer research 62, 7083-7092 (2002)). Briefly, fertilized eggs were incubated in a rotary humidified incubator at 38° C. with for 10 days. After releasing the CAM by applying mild amount of low pressure to the hole over the air sac and cutting a square 1-cm^2 window encompassing a second hole near the allantoic vein, cultured human cells that had been pre-treated with siRNA as indicated were detached by trypsinization and re-suspended in complete medium prior to implantation of 2×10^6 cells adjacent to the mesenchyme in each egg. The windows were subsequently, sealed and the eggs were returned to a stationary incubator. Cells were then treated as indicated with 40 mg/kg body weight Olaparib which was administered on day 13, 15 and 17. Day 18 embryos were sacrificed. Tumors were then excised and weighed. […] After incubation of either the metastasis or intravasation assays, the extra-embryonic tumor and CAM, as well as the embryonic liver were harvested and analyzed for the presence of tumor cells by quantitative human alu-specific PCR. […] Quantification of human cells in the extracted DNA was done as described^14. Fluorogenic TaqMan qPCR probes were applied as above, and DNA copy numbers were quantified.

[3] = test system: PC3-ERG cells; assay: Neutral COMET assay, ERG overexpressing PC3 cells versus controls; assay type: cell-based, human
[4] = test system: DU145 xenografts; assay: DU145 mouse xenograft model; assay type: in vivo, mice; details: DU145 (ETS negative), Olaparib
Description: (§1) Olaparib was obtained from Axon Medchem (Groningen, The Netherlands).

[5] = Body weight of xenografted mice; assay type: in vivo; details: xenograft and primagraft models, Olaparib treatment
Procedure: as §1
Human prostate cancer specimens MDA-PCa 2b-T (ETV1 positive), MDA-PCa-133 (ERG positive) and MDA PCa 118b (ETS-negative) were obtained (Li, Z. G., et al. The Journal of clinical investigation 118, 2697-2710 (2008)). Each xenografted tumor tissue was aseptically harvested from the host mice. New recipient mice were anesthetized by injecting […] intraperitoneally for chemical restraint before tumor implantation. About 0.5 cm^3 size of the excised tumor tissue was directly implanted into subcutaneous pockets of 6- to 8-week-old male CB17 SCID mice (Charles River Laboratories) in a laminar flow sterile hood. Sub-cutaneous pocket was carefully closed by applying 1 or 2 wound clips. All mice were monitored for 24 hours after implantation procedure for any apparent physiologic disturbances or missing wound clips. Olaparib (40 mg/Kg body weight) treatment was started after 72 hours. […] Body weight was also monitored weekly during the course of the study.

[6] = test system: VCaP xenografts; assay: VCaP mouse xenograft model; assay type: in vivo, mice
Description: as §1

[7] = test system: VCaP cells; assay: Basement membrane matrix invasion assay, VCaP cells; assay type: cell-based, human; details: P<0.01 for DNA-PKcs siRNA or NU7026>10 μM; P<0.05 for all PARP1 siRNA, NU1025 or Olaparib treatments
Procedure: (§2) For invasion assays, the prostate cell lines RWPE-1 and VCaP were transfected with siRNA or negative controls as indicated. NU7026 (Sigma) and NU1025 (Calbiochem) were dissolved in DMSO and stored at −20° C. in the dark. Forty-eight hours post-transfection/transduction, cells were seeded onto the basement membrane matrix (EC matrix, Chemicon, Temecula, Calif.) in the chamber insert with […] pores of a 24-well culture plate in serum free media. Cells were attracted to the lower chamber by the addition of complete media as a chemoattractant. After 48 hours incubation at 37° C. with 5% CO2, the non-invading cells and EC matrix were gently removed with a cotton swab. Invasive cells, which were located on the lower side of the membrane, were stained with crystal violet, air dried and photographed. To quantify the relative number of invaded cells, colorimetric assays were performed by treating the inserts with 150 μl of 10% acetic acid (v/v) and measuring absorbance of each condition at 560 nm using a spectrophotometer (GE Healthcare).

[8] = test system: ERG-target gene expression; assay: qPCR of ERG-target genes in staged PC3-ERG tumors; assay type: in vivo, mice; details: 4 hours, 40 mg/kg Olaparib or 25 mg/kg NU7026
[9] = Serum ALT and AST of PC3-ERG mice (liver toxicity); assay type: in vivo
[10] = test system: PC3 cells expressing BRCA2 shRNA; assay: γ-H2A.X immunofluorescence, PC3 cells expressing BRCA2 shRNA; assay type: cell-based, human; details: BRCA2 depleted PC3 cells, Olaparib
Procedure: Cells were seeded at 25,000 cells/mL in 4-well chamber slide 24 hours prior to the addition of siRNA or drug as indicated. Merbarone (Sigma) was dissolved in DMSO and stored at 4° C. Cells were then washed once in PBS, fixed for 15 minutes in 100% methanol, washed in PBS, permeabilized for 5 minutes in PBS containing 0.2% Triton-X, washed twice in PBS, blocked for 30 minutes in PBS containing 0.5% donkey serum (Sigma, St. Louis, Mo.), held for 45 minutes in PBS containing 0.5% donkey serum and primary antibody: anti-γ-H2A.X mouse monoclonal (Millipore Cat #05-636), anti-γ-H2A.X rabbit polyclonal (Cell Signaling, Cat #9719, Danvers, Mass.), and anti-53BP1 rabbit polyclonal (Cell Signaling, Cat #4937, Danvers, Mass.) washed 3 times with PBS, held for 30 minutes in PBS containing 0.5% donkey serum and secondary antibody: Alexa Fluor 488-anti-Mouse (Invitrogen) or Alexa Fluor 594-anti-Rabbit (Invitrogen). Cells were then stained with DAPI for 5 minutes and slides were mounted 12 hours prior to analysis using Vectashield (Vector laboratories, Burlingame, Calif.). Images were taken using 100× oil lens on an Olympus Confocal microscope at the University of Michigan microscopy imaging lab.

[11] = test system: RWPE cells overexpressing SLC45A3-BRAF; assay: Basement membrane matrix invasion assay, RWPE-SLC45A3-BRAF cells; assay type: cell-based, human
Procedure: as §2

Question: Which “ERG-enhanced DNA DSB damage repair (γH2A.X foci)” value [1] does the source give for `O=C(c1cc(Cc2n[nH]c(=O)c3ccccc23)ccc1F)N1CCN(C(=O)C2CC2)CC1` [Olaparib, 4-[3-(4-Cyclopropanecarbonylpiperazine-1-carbonyl)-4-fluorobenzyl]-2H-phthalazin-1-one] here?
Answer: The value was “blocked; also recorded: reversed by PARP inhibition”.

Question: And the “tumor size (weight) on CAM” value [2]?
Answer: Its value is “significantly smaller”.

Question: What about the “potentiated DNA damage (COMET), time course” value ([3]; PC3-ERG relative to PC3-LACZ, 0.5, 1, 24 and 48 hr exposure, as early as 30 min (p=0.002)) of the same molecule?
Answer: The value was “potentiated DNA damage was observed”.

Question: And the “COMET tail moment increase, ERG positive cells versus controls” value ([3]; PC3 cells with and without Olaparib, P=0.03, two-way ANOVA)?
Answer: The value was “significantly greater increase in the tail moments”.

Question: And the xenograft growth [4]?
Answer: Its xenograft growth is “not responsive; also recorded: did not inhibit the growth”.

Question: And the total body weight [5]?
Answer: Its total body weight is “did not lead to a significant decrease in total body weight; also recorded: did not have an observable effect on total body weight; also recorded: does not reduce total mouse body weight”.

Question: What about the “dose dependence of VCaP tumor growth response” value ([6]; Olaparib) of the same molecule?
Answer: Its value is “dose dependent”.

Question: And the “tumor growth relative to the vehicle control” value ([6]; VCaP, Olaparib 40 mg/kg/day IP (P=0.001), NU7026 25 mg/kg/day IP (p=0.004))?
Answer: Its value is “significant reduction of tumor growth”.

Question: What about the VCaP cell invasion [7] of the same molecule?
Answer: The VCaP cell invasion was “significant reduction; also recorded: blocks VCaP cell invasion”.

Question: What about the “ERG-target gene expression in tumors (qPCR)” value [8] of the same molecule?
Answer: The value was “loss of ERG-target gene expression”.

Question: And the “liver toxicity as assessed by serum levels of ALT and AST” value [9]?
Answer: Its value is “did not lead to liver toxicity”.

Question: And the γ-H2A.X staining [10]?
Answer: Its γ-H2A.X staining is “similarly dramatic increase in γ-H2A.X staining”.

Question: What about the “invasion of RWPE SLC45A3-BRAF (negative control)” value [11] of the same molecule?
Answer: The value was “does now effect invasion”.
